# Measurements as given in the kinase profiling compilation of Christmann-Franck et al. (2016).
# What was measured:
# Assay in all cases: KINOMEscan competition binding
# Details in all cases: compound 1.0 µM
# NEK11 (human) = NEK11 (human) (UniProt Q8NG66)
# RPS6KA1 KD2 (human) = RPS6KA1 KD2 (human) (UniProt Q15418)
# MAP4K1 (human) = MAP4K1 (human) (UniProt Q92918)
# ANKK1 (human) = ANKK1 (human) (UniProt Q8NFD2)
# IKBKE (human) = IKBKE (human) (UniProt Q14164)
# PRKAA1 (human) = PRKAA1 (human) (UniProt Q13131)
# HIPK4 (human) = HIPK4 (human) (UniProt Q8NE63)
# [1] = test system: ABL1 (human), P00519 [Y253F]
# CAMK1G (human) = CAMK1G (human) (UniProt Q96NX5)
# DCLK2 (human) = DCLK2 (human) (UniProt Q8N568)
# PAK6 (human) = PAK6 (human) (UniProt Q9NQU5)
# [2] = test system: RET (human), P07949 [V804M]
# CDK11B (human) = CDK11B (human) (UniProt P21127)
# RPS6KA5 KD2 (human) = RPS6KA5 KD2 (human) (UniProt O75582)
# CSNK1E (human) = CSNK1E (human) (UniProt P49674)
# IRAK1 (human) = IRAK1 (human) (UniProt P51617)
# MAPK11 (human) = MAPK11 (human) (UniProt Q15759)
# EPHB2 (human) = EPHB2 (human) (UniProt P29323)
# BMP2K (human) = BMP2K (human) (UniProt Q9NSY1)
# CAMK2G (human) = CAMK2G (human) (UniProt Q13555)
# MKNK2 (human) = MKNK2 (human) (UniProt Q9HBH9)
# GAK (human) = GAK (human) (UniProt O14976)
# MERTK (human) = MERTK (human) (UniProt Q12866)
# MERTK (human), sequence (Q12866 whole entry, looked up): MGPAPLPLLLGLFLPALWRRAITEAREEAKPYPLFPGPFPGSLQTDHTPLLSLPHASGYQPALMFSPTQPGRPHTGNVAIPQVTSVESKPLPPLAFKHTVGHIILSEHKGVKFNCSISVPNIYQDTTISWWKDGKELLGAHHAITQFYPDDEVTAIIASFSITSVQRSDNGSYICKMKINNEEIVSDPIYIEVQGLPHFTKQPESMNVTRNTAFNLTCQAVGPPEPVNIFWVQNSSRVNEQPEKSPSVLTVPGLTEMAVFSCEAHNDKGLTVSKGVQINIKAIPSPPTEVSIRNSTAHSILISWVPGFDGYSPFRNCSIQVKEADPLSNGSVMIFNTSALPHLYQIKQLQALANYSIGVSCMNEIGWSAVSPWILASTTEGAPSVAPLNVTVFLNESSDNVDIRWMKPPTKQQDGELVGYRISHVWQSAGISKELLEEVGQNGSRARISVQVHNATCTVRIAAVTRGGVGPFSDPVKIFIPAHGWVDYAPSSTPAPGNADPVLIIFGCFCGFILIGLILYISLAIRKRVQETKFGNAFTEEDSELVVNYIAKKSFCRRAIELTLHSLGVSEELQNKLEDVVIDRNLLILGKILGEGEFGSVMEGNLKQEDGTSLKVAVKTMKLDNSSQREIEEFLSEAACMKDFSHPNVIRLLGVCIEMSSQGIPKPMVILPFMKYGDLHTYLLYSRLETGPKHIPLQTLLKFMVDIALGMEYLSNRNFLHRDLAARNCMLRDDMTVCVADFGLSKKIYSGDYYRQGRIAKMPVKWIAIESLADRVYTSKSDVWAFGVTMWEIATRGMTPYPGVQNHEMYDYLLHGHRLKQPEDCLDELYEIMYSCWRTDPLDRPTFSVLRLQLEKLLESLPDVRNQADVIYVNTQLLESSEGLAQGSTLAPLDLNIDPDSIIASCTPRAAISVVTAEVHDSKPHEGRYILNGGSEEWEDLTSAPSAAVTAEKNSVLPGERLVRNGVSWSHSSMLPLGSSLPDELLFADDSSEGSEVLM
# [3] = test system: EGFR (human), P00533 [L861Q]
# KIT (human) = KIT (human) (UniProt P10721)
# CHUK (human) = CHUK (human) (UniProt O15111)
# NEK2 (human) = NEK2 (human) (UniProt P51955)
# RIPK4 (human) = RIPK4 (human) (UniProt P57078)
# RPS6KA4 KD2 (human) = RPS6KA4 KD2 (human) (UniProt O75676)
# MAPK6 (human) = MAPK6 (human) (UniProt Q16659)
# MAPK6 (human), sequence (Q16659 whole entry, looked up): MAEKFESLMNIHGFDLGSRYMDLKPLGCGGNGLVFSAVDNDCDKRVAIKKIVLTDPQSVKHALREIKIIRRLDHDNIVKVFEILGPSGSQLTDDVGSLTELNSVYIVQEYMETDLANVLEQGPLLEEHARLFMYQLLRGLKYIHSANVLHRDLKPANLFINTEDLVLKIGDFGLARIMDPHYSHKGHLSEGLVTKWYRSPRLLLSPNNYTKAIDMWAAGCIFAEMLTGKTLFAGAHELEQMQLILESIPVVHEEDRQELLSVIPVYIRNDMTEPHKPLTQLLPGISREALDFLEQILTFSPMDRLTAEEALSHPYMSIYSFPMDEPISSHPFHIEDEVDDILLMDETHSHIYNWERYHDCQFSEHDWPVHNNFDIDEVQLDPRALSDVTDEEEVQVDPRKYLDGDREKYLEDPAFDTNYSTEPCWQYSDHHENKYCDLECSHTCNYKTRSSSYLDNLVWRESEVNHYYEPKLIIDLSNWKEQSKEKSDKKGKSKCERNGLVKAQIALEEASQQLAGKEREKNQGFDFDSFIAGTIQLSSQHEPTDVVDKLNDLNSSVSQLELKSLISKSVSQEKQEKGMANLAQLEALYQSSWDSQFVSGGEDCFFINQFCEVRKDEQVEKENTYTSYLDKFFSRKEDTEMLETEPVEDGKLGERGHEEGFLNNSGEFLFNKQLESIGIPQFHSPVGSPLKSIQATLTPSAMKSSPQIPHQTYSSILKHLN
# TIE1 (human) = TIE1 (human) (UniProt P35590)
# CSNK1A1 (human) = CSNK1A1 (human) (UniProt P48729)
# PIM2 (human) = PIM2 (human) (UniProt Q9P1W9)
# NEK1 (human) = NEK1 (human) (UniProt Q96PY6)
# NEK1 (human), sequence (Q96PY6 whole entry, looked up): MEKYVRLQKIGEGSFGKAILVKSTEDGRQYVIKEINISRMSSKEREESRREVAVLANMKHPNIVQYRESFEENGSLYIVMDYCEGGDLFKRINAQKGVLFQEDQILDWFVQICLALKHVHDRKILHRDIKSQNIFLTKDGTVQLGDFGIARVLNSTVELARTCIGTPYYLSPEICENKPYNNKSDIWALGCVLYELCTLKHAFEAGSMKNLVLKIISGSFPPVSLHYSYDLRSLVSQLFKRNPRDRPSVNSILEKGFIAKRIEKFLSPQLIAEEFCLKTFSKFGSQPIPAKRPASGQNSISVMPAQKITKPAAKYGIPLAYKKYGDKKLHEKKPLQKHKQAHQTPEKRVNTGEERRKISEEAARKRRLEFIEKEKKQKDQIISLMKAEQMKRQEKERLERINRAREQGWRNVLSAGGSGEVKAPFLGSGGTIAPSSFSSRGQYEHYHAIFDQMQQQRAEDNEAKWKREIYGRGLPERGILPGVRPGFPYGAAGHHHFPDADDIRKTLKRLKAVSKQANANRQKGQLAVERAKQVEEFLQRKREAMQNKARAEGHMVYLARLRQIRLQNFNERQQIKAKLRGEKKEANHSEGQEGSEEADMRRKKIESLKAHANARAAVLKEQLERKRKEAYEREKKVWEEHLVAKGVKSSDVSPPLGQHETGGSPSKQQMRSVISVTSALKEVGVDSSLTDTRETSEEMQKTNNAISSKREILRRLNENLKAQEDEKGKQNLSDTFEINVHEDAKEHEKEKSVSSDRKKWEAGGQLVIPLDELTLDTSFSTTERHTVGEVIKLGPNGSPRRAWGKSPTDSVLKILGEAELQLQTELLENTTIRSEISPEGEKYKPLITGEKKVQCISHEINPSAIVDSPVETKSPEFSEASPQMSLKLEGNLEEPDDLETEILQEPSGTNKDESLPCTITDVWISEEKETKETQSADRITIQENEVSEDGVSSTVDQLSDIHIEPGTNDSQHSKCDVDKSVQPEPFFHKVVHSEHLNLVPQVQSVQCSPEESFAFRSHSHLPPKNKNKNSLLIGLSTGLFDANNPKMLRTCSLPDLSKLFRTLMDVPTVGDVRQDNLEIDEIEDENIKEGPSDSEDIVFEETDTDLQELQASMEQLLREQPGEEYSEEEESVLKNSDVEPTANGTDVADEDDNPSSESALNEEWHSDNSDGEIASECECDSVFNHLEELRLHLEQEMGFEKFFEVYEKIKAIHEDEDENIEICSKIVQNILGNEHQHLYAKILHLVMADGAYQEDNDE
# OXSR1 (human) = OXSR1 (human) (UniProt O95747)
# NTRK1 (human) = NTRK1 (human) (UniProt P04629)
# [4] = test system: FLT3 (human), P36888 [K663Q]
# MAP3K5 (human) = MAP3K5 (human) (UniProt Q99683)
# MAP3K5 (human), sequence (Q99683 whole entry, looked up): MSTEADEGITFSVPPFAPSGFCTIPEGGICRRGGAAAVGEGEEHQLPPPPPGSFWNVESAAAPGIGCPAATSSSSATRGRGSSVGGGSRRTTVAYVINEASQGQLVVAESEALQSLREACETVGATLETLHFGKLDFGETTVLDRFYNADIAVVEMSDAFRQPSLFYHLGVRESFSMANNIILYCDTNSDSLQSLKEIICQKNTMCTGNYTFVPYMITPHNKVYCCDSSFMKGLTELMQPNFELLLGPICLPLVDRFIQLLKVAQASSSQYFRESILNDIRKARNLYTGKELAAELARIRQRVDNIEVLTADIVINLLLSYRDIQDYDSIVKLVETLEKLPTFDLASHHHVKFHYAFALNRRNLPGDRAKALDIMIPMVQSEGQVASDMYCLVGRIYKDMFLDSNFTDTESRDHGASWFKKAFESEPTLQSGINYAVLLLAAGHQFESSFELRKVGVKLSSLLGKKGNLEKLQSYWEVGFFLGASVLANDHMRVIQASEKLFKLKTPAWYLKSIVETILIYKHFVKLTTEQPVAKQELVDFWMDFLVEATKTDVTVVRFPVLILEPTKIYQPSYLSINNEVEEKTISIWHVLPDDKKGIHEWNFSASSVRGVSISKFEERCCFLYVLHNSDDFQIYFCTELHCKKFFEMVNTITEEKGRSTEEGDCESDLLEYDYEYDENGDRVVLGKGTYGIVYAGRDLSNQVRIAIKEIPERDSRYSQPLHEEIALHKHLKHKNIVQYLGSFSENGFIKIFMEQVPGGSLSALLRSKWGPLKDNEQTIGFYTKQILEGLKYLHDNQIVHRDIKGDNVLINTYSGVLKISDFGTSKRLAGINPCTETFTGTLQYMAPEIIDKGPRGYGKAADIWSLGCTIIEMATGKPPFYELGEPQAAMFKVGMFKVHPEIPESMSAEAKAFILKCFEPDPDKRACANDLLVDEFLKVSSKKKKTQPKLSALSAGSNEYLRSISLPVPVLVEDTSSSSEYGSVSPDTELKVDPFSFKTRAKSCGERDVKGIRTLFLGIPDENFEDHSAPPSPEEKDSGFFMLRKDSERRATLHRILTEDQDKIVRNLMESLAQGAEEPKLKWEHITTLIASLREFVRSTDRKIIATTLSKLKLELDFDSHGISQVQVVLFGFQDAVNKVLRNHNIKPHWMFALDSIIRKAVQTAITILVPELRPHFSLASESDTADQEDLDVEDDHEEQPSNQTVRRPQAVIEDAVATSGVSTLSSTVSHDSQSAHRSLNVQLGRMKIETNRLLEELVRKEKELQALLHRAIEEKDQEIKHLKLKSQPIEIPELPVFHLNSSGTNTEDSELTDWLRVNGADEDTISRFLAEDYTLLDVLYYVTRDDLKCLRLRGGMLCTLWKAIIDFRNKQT
# PIP5K1C (human) = PIP5K1C (human) (UniProt O60331)
# AURKC (human) = AURKC (human) (UniProt Q9UQB9)
# SIK1 (human) = SIK1 (human) (UniProt P57059)
# MAP2K3 (human) = MAP2K3 (human) (UniProt P46734)
# NEK11 (human), sequence (Q8NG66 whole entry, looked up): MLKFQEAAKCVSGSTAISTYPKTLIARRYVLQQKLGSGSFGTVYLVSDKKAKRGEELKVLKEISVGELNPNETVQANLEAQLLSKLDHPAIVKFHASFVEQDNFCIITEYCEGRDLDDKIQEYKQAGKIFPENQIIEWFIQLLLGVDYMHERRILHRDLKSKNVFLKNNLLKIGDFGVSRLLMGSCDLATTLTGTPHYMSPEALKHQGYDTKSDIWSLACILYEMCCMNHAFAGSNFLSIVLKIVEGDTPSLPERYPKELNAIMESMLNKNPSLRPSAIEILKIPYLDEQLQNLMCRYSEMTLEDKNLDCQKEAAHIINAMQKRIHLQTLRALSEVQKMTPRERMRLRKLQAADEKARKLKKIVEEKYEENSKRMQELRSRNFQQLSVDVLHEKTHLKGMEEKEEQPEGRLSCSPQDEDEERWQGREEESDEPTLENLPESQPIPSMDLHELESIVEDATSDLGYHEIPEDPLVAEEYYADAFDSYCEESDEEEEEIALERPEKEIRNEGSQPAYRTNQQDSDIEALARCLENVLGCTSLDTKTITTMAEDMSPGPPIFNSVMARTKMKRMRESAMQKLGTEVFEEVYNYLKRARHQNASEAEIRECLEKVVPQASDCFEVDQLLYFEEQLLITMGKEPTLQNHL
smiles,measurement,setting,value
CN(C)C/C=C/C(=O)Nc1cccc(C(=O)Nc2ccc(Nc3nccc(/C(C#N)=C4\Nc5ccccc5S4)n3)cc2)c1,"kinase still bound, per cent of control",NEK11 (human),100%
same,"kinase still bound, per cent of control",RPS6KA1 KD2 (human),100%
same,"kinase still bound, per cent of control",MAP4K1 (human),100%
same,"kinase still bound, per cent of control",ANKK1 (human),100%
same,"kinase still bound, per cent of control",IKBKE (human),100%
same,"kinase still bound, per cent of control",PRKAA1 (human),100%
same,"kinase still bound, per cent of control",HIPK4 (human),6%
same,"kinase still bound, per cent of control",[1],100%
same,"kinase still bound, per cent of control",CAMK1G (human),100%
same,"kinase still bound, per cent of control",DCLK2 (human),100%
same,"kinase still bound, per cent of control",PAK6 (human),100%
same,"kinase still bound, per cent of control",[2],100%
same,"kinase still bound, per cent of control",CDK11B (human),70%
same,"kinase still bound, per cent of control",RPS6KA5 KD2 (human),100%
same,"kinase still bound, per cent of control",CSNK1E (human),41%
same,"kinase still bound, per cent of control",IRAK1 (human),1.2%
same,"kinase still bound, per cent of control",MAPK11 (human),100%
same,"kinase still bound, per cent of control",EPHB2 (human),77%
same,"kinase still bound, per cent of control",BMP2K (human),51%
same,"kinase still bound, per cent of control",CAMK2G (human),100%
same,"kinase still bound, per cent of control",MKNK2 (human),68%
same,"kinase still bound, per cent of control",GAK (human),79%
same,"kinase still bound, per cent of control",MERTK (human),66%
same,"kinase still bound, per cent of control",[3],81%
same,"kinase still bound, per cent of control",KIT (human),12%
same,"kinase still bound, per cent of control",CHUK (human),100%
same,"kinase still bound, per cent of control",NEK2 (human),99%
same,"kinase still bound, per cent of control",RIPK4 (human),100%
same,"kinase still bound, per cent of control",RPS6KA4 KD2 (human),100%
same,"kinase still bound, per cent of control",MAPK6 (human),27%
same,"kinase still bound, per cent of control",TIE1 (human),70%
same,"kinase still bound, per cent of control",CSNK1A1 (human),75%
same,"kinase still bound, per cent of control",PIM2 (human),51%
same,"kinase still bound, per cent of control",NEK1 (human),100%
same,"kinase still bound, per cent of control",OXSR1 (human),100%
same,"kinase still bound, per cent of control",NTRK1 (human),100%
same,"kinase still bound, per cent of control",[4],37%
same,"kinase still bound, per cent of control",MAP3K5 (human),100%
same,"kinase still bound, per cent of control",PIP5K1C (human),100%
same,"kinase still bound, per cent of control",AURKC (human),76%
same,"kinase still bound, per cent of control",SIK1 (human),100%
same,"kinase still bound, per cent of control",MAP2K3 (human),88%
